Results taken from ChEMBL document CHEMBL6177967, “Semisynthesis and biological evaluation of 17-hydroxybrevianamide N derivatives as anti-inflammatory agents by mediating NF-κB and MAPK signaling pathways” (Eur J Med Chem, 2025).
The source made the active and inactive calls. The calls are words filed in the database; no cut-off is given here.

Experiments:
RAW264.7 [1] = experiment: Anti-inflammatory activity in LPS-induced mouse RAW264.7 cells assessed as inhibition of NO levels at 2 uM incubated for 24 hrs; format: functional, cell-based
RAW264.7 [2] = experiment: Cytotoxicity against mouse RAW264.7 cells assessed as inhibition of cell growth at 10 uM incubated for 24 hrs by MTT assay; format: toxicity, cell-based; conditions: raw264.7, 24 h
RAW264.7 [3] = experiment: Cytotoxicity against mouse RAW264.7 cells assessed as inhibition of cell growth at 50 uM incubated for 24 hrs by MTT assay; format: toxicity, cell-based; conditions: raw264.7, 24 h
RAW264.7 [4] = experiment: Anti-inflammatory activity in LPS-induced mouse RAW264.7 cells assessed as inhibition of IL-1beta level at 2 uM incubated for 24 hrs by ELISA relative to control; format: functional
RAW264.7 [5] = experiment: Anti-inflammatory activity in LPS-induced mouse RAW264.7 cells assessed as inhibition of NO levels incubated for 24 hrs; format: functional, cell-based; conditions: RAW264.7, 24 h
RAW264.7 [6] = experiment: Anti-inflammatory activity in LPS-induced mouse RAW264.7 cells assessed as inhibition of IL-6 level at 2 uM incubated for 24 hrs by ELISA relative to control; format: functional
RAW264.7 [7] = experiment: Cytotoxicity against mouse RAW264.7 cells assessed as inhibition of cell growth at 2 uM incubated for 24 hrs by MTT assay; format: toxicity, cell-based; conditions: raw264.7, 24 h
RAW264.7 [8] = experiment: Anti-inflammatory activity in LPS-induced mouse RAW264.7 cells assessed as inhibition of TNF-alpha level at 2 uM incubated for 24 hrs by ELISA relative to control; format: functional
RAW264.7 [9] = experiment: Anti-inflammatory activity in LPS-induced mouse RAW264.7 cells assessed as inhibition of TNF-alpha level at 20 uM incubated for 24 hrs by ELISA relative to control; format: functional
RAW264.7 [10] = experiment: Anti-inflammatory activity in LPS-induced mouse RAW264.7 cells assessed as inhibition of IL-6 level at 20 uM incubated for 24 hrs by ELISA relative to control; format: functional
RAW264.7 [11] = experiment: Anti-inflammatory activity in LPS-induced mouse RAW264.7 cells assessed as inhibition of IL-1beta level at 20 uM incubated for 24 hrs by ELISA relative to control; format: functional

CN1C(=O)c2nc3ccccc3c(=O)n2C(Cc2ccccc2OCC#N)C1=O (racemic)
Activity (RAW264.7 [1]): Active; Strong Ability Of No Inhibition Observed
Activity (RAW264.7 [2]): Non-toxic
Activity (RAW264.7 [3]): Non-toxic

CN1C(=O)c2nc3ccccc3c(=O)n2C(Cc2ccccc2OC(=O)c2cccs2)C1=O (racemic)
Activity (RAW264.7 [2]): Non-toxic

CN1C(=O)c2nc3ccccc3c(=O)n2C(Cc2ccccc2OC(=O)c2ccco2)C1=O (racemic)
Activity (RAW264.7 [2]): Non-toxic

CC(=O)Oc1ccccc1CC1C(=O)N(C)C(=O)c2nc3ccccc3c(=O)n21 (racemic)
Activity (RAW264.7 [2]): Non-toxic

O=C1c2nc3ccccc3c(=O)n2[C@@H](Cc2ccccc2O)C(=O)N1Cc1cccc(F)c1
inhibition at 2 µM (RAW264.7 [4]): 60.7%
IC50 (RAW264.7 [5]): 3.07 µM
inhibition at 2 µM (RAW264.7 [6]): 21.3%
Activity (RAW264.7 [7]): Non-toxic
inhibition (RAW264.7 [8]): inactive

CNC(=N)NCCC[C@H](N)C(=O)O [TILARGININE]
IC50 (RAW264.7 [5]): 20 µM
inhibition at 20 µM (RAW264.7 [9]): 19.4%
inhibition at 20 µM (RAW264.7 [10]): 27.6%
inhibition at 20 µM (RAW264.7 [11]): 61.9%

C=CCOc1ccccc1C[C@@H]1C(=O)N(C)C(=O)c2nc3ccccc3c(=O)n21
inhibition at 2 µM (RAW264.7 [4]): 42.9%
IC50 (RAW264.7 [5]): 1.68 µM
inhibition at 2 µM (RAW264.7 [6]): 36.5%
Activity (RAW264.7 [7]): Non-toxic
inhibition (RAW264.7 [8]): inactive

COCC(=O)Oc1ccccc1CC1C(=O)N(C)C(=O)c2nc3ccccc3c(=O)n21 (racemic)
Activity (RAW264.7 [2]): Non-toxic

O=C1c2nc3ccccc3c(=O)n2[C@@H](Cc2ccccc2O)C(=O)N1Cc1cccc(Br)c1
inhibition (RAW264.7 [4]): inactive
IC50 (RAW264.7 [5]): > 8 µM
inhibition (RAW264.7 [6]): inactive
Activity (RAW264.7 [7]): Non-toxic
inhibition (RAW264.7 [8]): inactive

COCOc1ccccc1CC1C(=O)N(Cc2cccc(C(F)(F)F)c2)C(=O)c2nc3ccccc3c(=O)n21 (racemic)
Activity (RAW264.7 [2]): Non-toxic
Activity (RAW264.7 [3]): Toxic

O=C1c2nc3ccccc3c(=O)n2[C@H](Cc2ccccc2O)C(=O)N1Cc1ccccc1Cl
inhibition at 2 µM (RAW264.7 [4]): 35.7%
IC50 (RAW264.7 [5]): 1.19 µM
inhibition at 2 µM (RAW264.7 [6]): 28.8%
Activity (RAW264.7 [7]): Non-toxic
inhibition (RAW264.7 [8]): inactive

CN1C(=O)C(Cc2ccccc2O)n2c(nc3ccccc3c2=O)C1(O)c1ccccc1 (racemic)
Activity (RAW264.7 [2]): Non-toxic
Activity (RAW264.7 [3]): Non-toxic

COc1ccccc1CC1C(=O)N(C)C(=O)c2nc3ccccc3c(=O)n21 (racemic)
Activity (RAW264.7 [2]): Non-toxic

Cc1cccc(CN2C(=O)c3nc4ccccc4c(=O)n3C(Cc3ccccc3O)C2=O)c1 (racemic)
Activity (RAW264.7 [1]): Active
Activity (RAW264.7 [2]): Non-toxic

COCOc1ccccc1CC1C(=O)N(Cc2cccc(C)c2)C(=O)c2nc3ccccc3c(=O)n21 (racemic)
Activity (RAW264.7 [2]): Non-toxic

CN1C(=O)c2nc3ccccc3c(=O)n2C(Cc2ccccc2O)C1=O (racemic)
Activity (RAW264.7 [2]): Non-toxic

CN1C(=O)c2nc3ccccc3c(=O)n2[C@@H](Cc2ccccc2OCC#N)C1=O
inhibition at 2 µM (RAW264.7 [4]): 48.8%
IC50 (RAW264.7 [5]): 1.61 µM
inhibition at 2 µM (RAW264.7 [6]): 31.6%
Activity (RAW264.7 [7]): Non-toxic
inhibition (RAW264.7 [8]): inactive

O=C1c2nc3ccccc3c(=O)n2C(Cc2ccccc2O)C(=O)N1Cc1cccc(F)c1 (racemic)
Activity (RAW264.7 [1]): Active; Strong Ability Of No Inhibition Observed
Activity (RAW264.7 [2]): Non-toxic

O=C1c2nc3ccccc3c(=O)n2[C@H](Cc2ccccc2O)C(=O)N1Cc1cccc(Br)c1
inhibition at 2 µM (RAW264.7 [4]): 45.2%
IC50 (RAW264.7 [5]): 1.37 µM
inhibition at 2 µM (RAW264.7 [6]): 19.2%
Activity (RAW264.7 [7]): Non-toxic
inhibition (RAW264.7 [8]): inactive

O=C1c2nc3ccccc3c(=O)n2C(Cc2ccccc2O)C(=O)N1Cc1cccc(Br)c1 (racemic)
Activity (RAW264.7 [1]): Active; Strong Ability Of No Inhibition Observed
Activity (RAW264.7 [2]): Non-toxic

O=C1c2nc3ccccc3c(=O)n2C(Cc2ccccc2O)C(=O)N1Cc1ccc(Cl)cc1 (racemic)
Activity (RAW264.7 [2]): Non-toxic
Activity (RAW264.7 [3]): Non-toxic

COc1ccccc1CC1C(=O)N(Cc2cccc(C)c2)C(=O)c2nc3ccccc3c(=O)n21 (racemic)
Activity (RAW264.7 [2]): Non-toxic

O=C1c2nc3ccccc3c(=O)n2C(Cc2ccccc2O)C(=O)N1Cc1ccccc1Cl (racemic)
Activity (RAW264.7 [1]): Active; Strong Ability Of No Inhibition Observed
Activity (RAW264.7 [2]): Non-toxic
Activity (RAW264.7 [3]): Non-toxic

O=C1c2nc3ccccc3c(=O)n2[C@H](Cc2ccccc2O)C(=O)N1Cc1cccc(F)c1
inhibition at 2 µM (RAW264.7 [4]): 44%
IC50 (RAW264.7 [5]): 2.25 µM
inhibition at 2 µM (RAW264.7 [6]): 22.9%
Activity (RAW264.7 [7]): Non-toxic
inhibition (RAW264.7 [8]): inactive

Cc1ccc(COc2ccccc2CC2C(=O)N(C)C(=O)c3nc4ccccc4c(=O)n32)cc1 (racemic)
Activity (RAW264.7 [2]): Non-toxic

O=C1NC(=O)C(Cc2ccccc2O)n2c1nc1ccccc1c2=O (racemic)
inhibition at 2 µM (RAW264.7 [4]): 33.3%
Activity (RAW264.7 [2]): Non-toxic
inhibition at 2 µM (RAW264.7 [6]): 28.8%
inhibition (RAW264.7 [8]): inactive

CN1C(=O)c2nc3ccccc3c(=O)n2C(Cc2ccccc2OCc2cccc(C(F)(F)F)c2)C1=O (racemic)
Activity (RAW264.7 [2]): Non-toxic

COCOc1ccccc1CC1C(=O)NC(=O)c2nc3ccccc3c(=O)n21 (racemic)
Activity (RAW264.7 [2]): Non-toxic

CN1C(=O)c2nc3ccccc3c(=O)n2[C@H](Cc2ccccc2OCc2ccccc2Cl)C1=O
inhibition (RAW264.7 [4]): inactive
IC50 (RAW264.7 [5]): > 8 µM
inhibition (RAW264.7 [6]): inactive
Activity (RAW264.7 [7]): Non-toxic
inhibition (RAW264.7 [8]): inactive

C=CCOc1ccccc1CC1C(=O)N(C)C(=O)c2nc3ccccc3c(=O)n21 (racemic)
Activity (RAW264.7 [1]): Active; Strong Ability Of No Inhibition Observed
Activity (RAW264.7 [2]): Non-toxic
Activity (RAW264.7 [3]): Toxic

CN1C(=O)c2nc3ccccc3c(=O)n2C(Cc2ccccc2OCc2ccccc2Cl)C1=O (racemic)
Activity (RAW264.7 [1]): Active; Strong Ability Of No Inhibition Observed
Activity (RAW264.7 [2]): Non-toxic

CN1C(=O)c2nc3ccccc3c(=O)n2C(Cc2ccccc2OC(=O)COCc2ccccc2)C1=O (racemic)
Activity (RAW264.7 [2]): Non-toxic

CN1C(=O)c2nc3ccccc3c(=O)n2[C@@H](Cc2ccccc2OCc2ccccc2Cl)C1=O
inhibition at 2 µM (RAW264.7 [4]): 82.1%
IC50 (RAW264.7 [5]): 1.53 µM
inhibition at 2 µM (RAW264.7 [6]): 21.4%
Activity (RAW264.7 [7]): Non-toxic
inhibition (RAW264.7 [8]): inactive

O=C1c2nc3ccccc3c(=O)n2[C@@H](Cc2ccccc2O)C(=O)N1Cc1ccccc1Cl
inhibition (RAW264.7 [4]): inactive
IC50 (RAW264.7 [5]): 1.78 µM
inhibition at 2 µM (RAW264.7 [6]): 19.3%
Activity (RAW264.7 [7]): Non-toxic
inhibition (RAW264.7 [8]): inactive

Cc1ccc(CN2C(=O)c3nc4ccccc4c(=O)n3C(Cc3ccccc3O)C2=O)cc1 (racemic)
Activity (RAW264.7 [2]): Non-toxic
Activity (RAW264.7 [3]): Non-toxic

COc1ccc(C2(O)c3nc4ccccc4c(=O)n3C(Cc3ccccc3O)C(=O)N2C)cc1 (racemic)
Activity (RAW264.7 [2]): Non-toxic

CCOC(=O)COc1ccccc1CC1C(=O)N(C)C(=O)c2nc3ccccc3c(=O)n21 (racemic)
Activity (RAW264.7 [2]): Non-toxic

CN1C(=O)c2nc3ccccc3c(=O)n2C(Cc2ccccc2OCc2ccc(Cl)cc2)C1=O (racemic)
Activity (RAW264.7 [1]): Active
Activity (RAW264.7 [2]): Non-toxic

COc1ccccc1CC1C(=O)N(Cc2cccc(F)c2)C(=O)c2nc3ccccc3c(=O)n21 (racemic)
Activity (RAW264.7 [2]): Non-toxic

O=C1c2nc3ccccc3c(=O)n2C(Cc2ccccc2O)C(=O)N1Cc1cccc(C(F)(F)F)c1 (racemic)
Activity (RAW264.7 [2]): Non-toxic

CN1C(=O)c2nc3ccccc3c(=O)n2[C@H](Cc2ccccc2OCC#N)C1=O
inhibition at 2 µM (RAW264.7 [4]): 63.1%
IC50 (RAW264.7 [5]): > 8 µM
inhibition at 2 µM (RAW264.7 [6]): 31.9%
Activity (RAW264.7 [7]): Non-toxic
inhibition (RAW264.7 [8]): inactive
